The test system of assay [1] is HDAC. The experiment in a line: Cell based homogenous HDAC assay, Hela. To be noted: read-out: IC50-HDAC Hela; Hela cells, mean ± SD of triplicate.
Description: (§3) After 24 h, 9 μl inhibitors with different concentration were added to the HeLa cells and incubation was continued for 3 h under cell culture conditions. After this treatment period, 10 μl of a 2 mM stock solution of the substrate Boc-K(Ac)-AMC was added into the 96 well plates with Hela cells and inhibitors. […] A549 and K562 cell lines used the same method, respectively. IC50s were calculated using GraphPad Prizm statistical package with sigmoidal variable slope dose response curve fit.
(§4) Boc-K(Ac)-AMC was used as a cell-permeable HDAC substrate, as after deacetylation it is cleaved by trypsin to release the florescent 7-amino-4-methylcoumarin (AMC).
In another assay the test system is HCT-8. The experiment in a line: Cytotoxicity / anti-proliferation assay (CCK-8), HCT-8. Type of assay: cell-based. Particulars: Homo sapiens, 72 h, CCK-8 kit. The procedure: (§1) Then the cells were exposed to the different inhibitors with various concentrations for 72 h. […] EC50s were calculated using GraphPad Prizm statistical package with sigmoidal variable slope dose response curve fit.
(§2) Cell anti-proliferation assays were performed to determine the toxicity of these inhibitors. […] These compounds were further evaluated against the control cell line HEK293 to test their toxicity with a non-cancerous cell line.
In general terms: Tetrazolium dyes change colour on reduction, which living cells bring about.

Assay [2] deals with HDAC. The experiment in a line: Cell based homogenous HDAC assay, K562. Particulars: read-out: IC50-HDAC K562; K562 cells, mean ± SD of triplicate.
Description: as §3, §4
In another assay the target is T1, G9a (Homo sapiens, UniProt Q96KQ7).
T1 construct: endogenous in cells; host or cells: MDA-MB-231
T1 sequence (Q96KQ7 1-1210): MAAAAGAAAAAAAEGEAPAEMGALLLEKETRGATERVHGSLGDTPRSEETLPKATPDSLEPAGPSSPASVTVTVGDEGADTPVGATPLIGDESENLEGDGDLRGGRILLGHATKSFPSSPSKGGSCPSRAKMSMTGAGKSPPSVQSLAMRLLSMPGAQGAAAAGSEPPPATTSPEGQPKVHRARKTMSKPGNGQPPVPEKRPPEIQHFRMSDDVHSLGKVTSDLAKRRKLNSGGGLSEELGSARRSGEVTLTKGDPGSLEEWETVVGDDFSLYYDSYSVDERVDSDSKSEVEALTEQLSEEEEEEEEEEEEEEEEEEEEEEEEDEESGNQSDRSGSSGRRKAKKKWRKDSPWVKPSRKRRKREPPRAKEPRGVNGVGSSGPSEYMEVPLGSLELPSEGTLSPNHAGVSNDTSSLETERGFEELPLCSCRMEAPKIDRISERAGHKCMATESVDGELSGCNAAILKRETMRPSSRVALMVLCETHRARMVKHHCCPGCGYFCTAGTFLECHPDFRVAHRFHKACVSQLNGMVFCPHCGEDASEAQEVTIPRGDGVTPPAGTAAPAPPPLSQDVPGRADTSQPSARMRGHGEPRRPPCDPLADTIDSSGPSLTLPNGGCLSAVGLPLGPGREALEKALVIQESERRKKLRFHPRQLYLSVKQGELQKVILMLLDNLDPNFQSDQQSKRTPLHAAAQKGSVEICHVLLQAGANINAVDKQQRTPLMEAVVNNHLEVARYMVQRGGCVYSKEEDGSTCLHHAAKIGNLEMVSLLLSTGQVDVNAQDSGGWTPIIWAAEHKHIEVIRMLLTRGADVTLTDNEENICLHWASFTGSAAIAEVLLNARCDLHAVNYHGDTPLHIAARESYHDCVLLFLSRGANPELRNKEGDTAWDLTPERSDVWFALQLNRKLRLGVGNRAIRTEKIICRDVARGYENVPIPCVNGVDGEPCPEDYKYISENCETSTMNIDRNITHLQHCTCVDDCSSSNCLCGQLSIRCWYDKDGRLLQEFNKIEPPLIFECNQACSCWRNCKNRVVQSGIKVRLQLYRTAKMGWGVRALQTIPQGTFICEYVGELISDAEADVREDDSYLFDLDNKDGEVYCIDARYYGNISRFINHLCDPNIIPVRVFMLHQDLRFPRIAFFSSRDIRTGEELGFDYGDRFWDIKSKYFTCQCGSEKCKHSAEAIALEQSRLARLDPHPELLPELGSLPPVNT
The experiment in a line: H3K9Me2 cell immunofluorescence in-cell Western (ICW) assay. Type of assay: cell-based. To be noted: MDA-MB-231 cell line, 48 h.

Another assay deals with MDA-MB-231. The experiment in a line: Cytotoxicity / anti-proliferation assay (CCK-8), MDA-MB-231. Format: cell-based. To be noted: Homo sapiens, 72 h, CCK-8 kit, read-out: EC50 MDA-MB-231. The procedure:
A549, MDA-MB-231, HCT-8, MCF-7, and HEK293 cells were seeded at 8000-10000 cells (100 μl) in white 96-well plates and pre-incubate the plate for 24 h under standard cell culture conditions, respectively. Then the cells were exposed to the different inhibitors with various concentrations for 72 h. Finally, 10 μl of CCK-8 kit solution was added to each well and incubated for 3-4 hours under standard cell culture conditions, and the 96 well plates were measured the absorbance at 450 nm using Perkin-Elmer Wallac Victor ^3V 1420 multi label plate reader (Perkin-Elmer, Wellesley, USA). EC50s were calculated using GraphPad Prizm statistical package with sigmoidal variable slope dose response curve fit.
Cell anti-proliferation assays were performed to determine the toxicity of these inhibitors. Several cell lines (MDA-MB-231, MCF-7, A549 and HCT-8) were incubated and then treated with varying concentrations of the inhibitors for 72 h, respectively. […] These compounds were further evaluated against the control cell line HEK293 to test their toxicity with a non-cancerous cell line.

The next assay concerns A549. The assay can be described thus: Cytotoxicity / anti-proliferation assay (CCK-8), A549. Format: cell-based. To be noted: Homo sapiens, 72 h, CCK-8 kit. As to the method:
as §1, §2

The test system of assay [3] is HDAC. The assay can be described thus: Cell based homogenous HDAC assay, A549. Particulars: read-out: IC50-HDAC A549; A549 cells, mean ± SD of triplicate.
Description: as §3, §4

One may read the IC50 as the midpoint of a concentration-inhibition curve. For orientation: EC50 means the concentration needed to bring the measured effect to its halfway point. `CN1CCCN(c2nc(NC3CCN(Cc4ccccc4)CC3)c3ccc(OCCCCCCC(=O)NO)cc3n2)CC1` [Compound 30]: the IC50 with HDAC [1], with HDAC [2], on G9a and in the assay on HDAC [3] was greater than 100 µM each time. For the same compound, the concentration for a half-maximal effect (EC50) in the assay with HCT-8 is greater than 100 µM; in the assay on MDA-MB-231, 24 ± 3.64 µM; in the assay with A549, greater than 100 µM.

Source of the values: patent US20190322643A1 (Georgia State University Research Foundation, Inc., priority 2016, published 2019).
